# Literature values as cited in patent publication US20230180818A1, “AEROSOLISED FORMULATION” (NICOVENTURES TRADING LIMITED, priority 2018, published 2023).
# Settings: compared to base cyclodextrins such as β-cyclodextrin
substance,measurement,value
2-hydroxy-propyl-β-cyclodextrin,solubility in water,increased solubility in water
